Laboratory results taken from patent publication US20110263650A1 (priority 2007, published 2011).
In brackets after ≈: the same amount, converted by molar mass. Where two headings read alike, the source gives them in different places.

Columns and labels:
[1] = tested on: SW-480 human colon adenocarcinoma (ATCC CCL-228); experiment: Growth inhibition assay (MTT), SW-480; format: cell-based; details: for IC50: SW480, 120 h, read-out: IC50 SW-480; for Activity in SW-480 compared with tubulysin D, in words: colon cancer cell line SW-480
[2] = tested on: KB-3-1 human cervix carcinoma (DSMZ ACC 158); experiment: Growth inhibition assay (MTT), KB-3-1; format: cell-based; details: KB 3-1, 120 h, read-out: IC50 KB-3-1
[3] = tested on: L929 mouse fibroblasts (DSMZ ACC 2); experiment: Growth inhibition assay (MTT), L929; details: for IC50: Mus musculus; for Cytotoxicity / activity in words: Tables 1 and 2, cell line not given
[4] = L929, 120 h, read-out: IC50 L929

Row | SMILES | IC50 ([1]; Homo sapiens) [ng/mL] | Activity in SW-480 compared with tubulysin D, in words [1] | IC50 ([2]; Homo sapiens) [ng/mL] | IC50 [3, 4] [ng/mL] | Fold less active than tubulysin D ([3]; cytotoxicity relative to tubulysin D) [fold] | IC50 ([3]; L929, read-out: Cytotoxicity stated in text) [ng/mL] | IC50 ([1]; human colon adenocarcinoma, MTT after 5 days) [ng/mL] | IC50 ([2]; human cervix carcinoma, MTT after 5 days) [ng/mL] | Cytotoxicity / activity in words [3]
1 | CC[C@H](C)[C@H](NC(=O)[C@H]1CCCCN1C)C(=O)N(C)[C@H](C[C@@H](OC(C)=O)c1nc(C(=O)N[C@@H](Cc2ccccc2)C[C@H](C)C(=O)O)cs1)C(C)C (stereo in doubt) [Analogue 10, 4-({2-[1-Acetoxy-4-methyl-3-(methyl-{3-methyl-2-[(1-methylpiperidine-2-carbonyl)-amino]-pentanoyl}-amino)-pentyl]-thiazole-4-carbonyl}-amino)-2-methyl-5-phenyl-pentanoic acid] | 0.016 (≈ 0.022 nM) | more active than tubulysin D | 0.13 (≈ 0.179 nM) | 0.23 (≈ 0.316 nM) | 4 | – | – | – | –
2 | CC[C@H](C)[C@H](NC(=O)[C@H]1CCCCN1C)C(=O)N(C)[C@H](C[C@@H](OC(C)=O)c1nc(C(=O)NC)cs1)C(C)C (stereo in doubt) [Analogue 11, acetic acid 4-methyl-1-(4-methylcarbamoyl-thiazol-2-yl)-3-(methyl-{3-methyl-2-[(1-methyl-piperidine-2-carbonyl)-amino]-pentanoyl}-amino)-pentyl ester] | 0.5 (≈ 0.906 nM) | – | 1.2 (≈ 2.17 nM) | 1.7 (≈ 3.08 nM) | – | 2 (≈ 3.62 nM) | – | – | –
3 | CC[C@H](C)[C@H](NC(=O)[C@H]1CCCCN1C)C(=O)N(COC(=O)CC(C)C)[C@H](C[C@@H](OC(C)=O)c1nc(C(=O)N[C@@H](Cc2ccccc2)C[C@H](C)C(=O)O)cs1)C(C)C [Analogue 1, Tubulysin D, reference compound] | – | – | – | 0.056 (≈ 0.0676 nM) | – | – | 0.022 (≈ 0.0266 nM) | 0.07 (≈ 0.0845 nM) | –
4 | CC[C@H](C)[C@H](NC(=O)[C@H]1CCCCN1C)C(=O)N(COC(=O)CC(C)C)[C@H](C[C@@H](OC(C)=O)c1nc(C(=O)NCCc2ccccc2)cs1)C(C)C [Analogue 2, 3-methyl-butyric acid ({1-[2-acetoxy-2-(4-phenethylcarbamoylthiazol-2-yl)-ethyl]-2-methyl-propyl}-{3-methyl-2-[(1-methyl-piperidine-2-carbonyl)-amino]-pentanoyl}-amino)-methyl ester] | 0.3 (≈ 0.404 nM) | – | 0.25 (≈ 0.337 nM) | 0.24 (≈ 0.323 nM) | – | – | – | – | –
5 | CC[C@H](C)[C@H](NC(=O)[C@H]1CCCCN1C)C(=O)N(COC(=O)CC(C)C)[C@H](C[C@@H](OC(C)=O)c1nc(C(=O)NCCCC(=O)O)cs1)C(C)C [Analogue 3, 3-Methyl-butyric acid ((1-{2-acetoxy-2-[4-(3-carboxy-propylcarbamoyl)-thiazol-2-yl]-ethyl)-2-methyl-propyl)-{3-methyl-2-[(1-methyl-piperidine-2-carbonyl)-amino]-pentanoyl}-amino)-methyl ester] | 0.91 (≈ 1.26 nM) | – | 1.8 (≈ 2.49 nM) | 3.5 (≈ 4.83 nM) | – | – | – | – | –
6 | CC[C@H](C)[C@H](NC(=O)[C@H]1CCCCN1C)C(=O)N(COC(=O)CC(C)C)[C@H](C[C@@H](OC(C)=O)c1nc(C(=O)NC)cs1)C(C)C [Analogue 4, 3-methyl-butyric acid ({1-[2-acetoxy-2-(4-methylcarbamoyl-thiazol-2-yl) -ethyl]-2-methyl-propyl}-{3-methyl-2-[(1-methyl-piperidine-2-carbonyl)-amino]pentanoyl}-amino)-methyl ester] | 0.35 (≈ 0.537 nM) | – | 0.22 (≈ 0.337 nM) | 0.3 (≈ 0.46 nM) | – | – | – | – | maintained good activity
7 | CC[C@H](C)[C@H](NC(=O)[C@H]1CCCCN1C)C(=O)N(COC(=O)CC(C)C)[C@H](C[C@@H](OC(C)=O)c1nc(C(=O)O)cs1)C(C)C [Analogue 5, 2-[1-acetoxy-4-methyl-3-((3-methyl-butyryloxymethyl)-{3-methyl-2-[(1-methyl-piperidine-2-carbonyl)-amino]-pentanoyl}-amino)-pentyl]-thiazole-4-carboxylic acid] | 0.35 (≈ 0.548 nM) | – | 1.5 (≈ 2.35 nM) | 2.2 (≈ 3.44 nM) | – | – | – | – | maintained good activity
8 | CC[C@H](C)[C@H](NC(=O)CN(C)C)C(=O)N(COC(=O)CC(C)C)[C@H](C[C@@H](OC(C)=O)c1nc(C(=O)N[C@@H](Cc2ccccc2)C[C@H](C)C(=O)O)cs1)C(C)C [Analogue 6, 4-[(2-{1-acetoxy-3-[[2-(2-dimethylamino-cetylamino)-3-methylpentanoyl]-(3-methyl-butyryloxymethyl)-amino]-4-methyl-pentyl}-thiazole-4-carbonyl)-amino]-2-methyl-5-phenyl-pentanoic acid] | 0.01 (≈ 0.0127 nM) | more active than tubulysin D | 0.029 (≈ 0.0368 nM) | 0.04 (≈ 0.0508 nM) | – | – | – | – | essentially equipotent with tubulysin D
9 | CC[C@H](C)[C@H](NC(C)=O)C(=O)N(COC(=O)CC(C)C)[C@H](C[C@@H](OC(C)=O)c1nc(C(=O)N[C@@H](Cc2ccccc2)C[C@H](C)C(=O)O)cs1)C(C)C [Analogue 7, 4-[(2-{1-acetoxy-3-[(2-acetylamino-3-methyl-pentanoyl)-(3-methyl-butyryloxymethyl)-amino]-4-methyl-pentyl}-thiazole-4-carbonyl)-amino]-2-methyl-5-phenyl-pentanoic acid] | 15 (≈ 20.1 nM) | – | 80 (≈ 107 nM) | 120 (≈ 161 nM) | – | – | – | – | drastic decrease in activity
10 | CC[C@H](C)[C@H](N=[N+]=[N-])C(=O)N(COC(=O)CC(C)C)[C@H](C[C@@H](OC(C)=O)c1nc(C(=O)N[C@@H](Cc2ccccc2)C[C@H](C)C(=O)O)cs1)C(C)C [Analogue 8, 4-[(2-{1-acetoxy-3-[(2-azido-3-metlzyl-pentanoyl)-(3-methylbutyryloxymethyl)-amino]-4-methyl-pentyl}-thiazole-4-carbonyl)-amino]-2-methyl-5-phenyl-pentanoic acid] | 8.8 (≈ 12.1 nM) | – | 40 (≈ 54.9 nM) | 45 (≈ 61.7 nM) | – | – | – | – | drastic decrease in activity
